Data taken from ChEMBL document CHEMBL1201862, “PubChem BioAssay data set” (2004).
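All cell lines were grown in 96-well plates and treated with compound for 48 hours. The concentration for 50% growth inhibition is given as GI50.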 Activity calls are given as the source filed them. Cut-off read from the data, not from the text of the source: active = GI50 up to about 1.1 µM and inactive = higher.

Key:
Experiment in all cases: NCI tumour cell line growth inhibition, 48 h
[1] = system: DMS-114
[2] = system: EKVX
[3] = system: SN12C
[4] = system: ACHN
[5] = system: SR
[6] = system: HL-60
[7] = system: SW-620
[8] = system: UACC-62
[9] = system: U-251
[10] = system: SF-539
[11] = system: SK-MEL-5
[12] = system: RPMI-8226
[13] = system: IGROV-1
[14] = system: KM12
[15] = system: TK-10
[16] = system: Malme-3M
[17] = system: NCI-H522
[18] = system: BT-549
[19] = system: MDA-MB-231
[20] = system: MDA-N

| Structure (SMILES) | GI50 [1] | GI50 [2] | GI50 [3] | GI50 [4] | GI50 [5] | GI50 [6] | GI50 [7] | GI50 [8] | GI50 [9] | GI50 [10] | GI50 [11] | GI50 [12] | GI50 [13] | GI50 [14] | GI50 [15] | GI50 [16] | GI50 [17] | GI50 [18] | GI50 [19] | GI50 [20] |
| --- | --- | --- | --- | --- | --- | --- | --- | --- | --- | --- | --- | --- | --- | --- | --- | --- | --- | --- | --- | --- |
| O=C(CCc1nnc2s/c(=C\c3ccc4c(c3)OCO4)c(=O)n12)Nc1cc(Cl)ccc1Cl | > 100 µM (inactive) | > 100 µM (inactive) | > 100 µM (inactive) | > 100 µM (inactive) | > 100 µM (inactive) | > 55.2 µM (inactive) | > 43.6 µM (inactive) | > 100 µM (inactive) | > 100 µM (inactive) | > 100 µM (inactive) | > 100 µM (inactive) | > 78.5 µM (inactive) | > 100 µM (inactive) | > 100 µM (inactive) | > 100 µM (inactive) | > 100 µM (inactive) | > 100 µM (inactive) | – | – | – |
| CC(=O)Nc1c(C)ccc2c1C(=O)c1ccccc1C2=O | 35.2 µM (inactive) | – | > 100 µM (inactive) | > 100 µM (inactive) | > 100 µM (inactive) | 47.2 µM (inactive) | > 100 µM (inactive) | > 100 µM (inactive) | > 100 µM (inactive) | > 100 µM (inactive) | > 100 µM (inactive) | 65.8 µM (inactive) | > 100 µM (inactive) | > 100 µM (inactive) | > 100 µM (inactive) | > 100 µM (inactive) | > 100 µM (inactive) | – | – | – |
| S=C1NC(c2ccccc2)=NC(Cc2ccccc2)(c2ccccc2)N1c1ccccc1 (stereo not given) | > 100 µM (inactive) | > 100 µM (inactive) | > 100 µM (inactive) | 97.1 µM (inactive) | > 100 µM (inactive) | > 100 µM (inactive) | > 100 µM (inactive) | > 100 µM (inactive) | – | > 100 µM (inactive) | > 100 µM (inactive) | > 100 µM (inactive) | > 100 µM (inactive) | > 100 µM (inactive) | > 100 µM (inactive) | > 100 µM (inactive) | – | – | – | – |
| CN1N=CSC12C(=O)N(c1ccc(Cl)cc1)C(=O)N2c1ccc(Cl)cc1 (stereo not given) | 1.87 µM (inactive) | 7.14 µM (inactive) | 3.44 µM (inactive) | 2.77 µM (inactive) | 2.75 µM (inactive) | 2.13 µM (inactive) | 4.52 µM (inactive) | 3.36 µM (inactive) | 3.67 µM (inactive) | 5.82 µM (inactive) | 3.55 µM (inactive) | 2.6 µM (inactive) | 5.05 µM (inactive) | 3.58 µM (inactive) | 3.84 µM (inactive) | 3.55 µM (inactive) | 2.05 µM (inactive) | – | – | – |
| COc1c(CC(=O)c2ccccc2)c2ccccc2n1C(C)=O | > 100 µM (inactive) | 35.6 µM (inactive) | > 100 µM (inactive) | > 100 µM (inactive) | > 100 µM (inactive) | > 100 µM (inactive) | > 100 µM (inactive) | > 100 µM (inactive) | > 100 µM (inactive) | > 100 µM (inactive) | – | > 100 µM (inactive) | > 100 µM (inactive) | > 100 µM (inactive) | – | – | – | – | – | – |
| O=C1C(Cl)C(c2ccc(Cl)cc2)N1n1cnc2ccccc2c1=O (stereo not given) | 42.3 µM (inactive) | 14.5 µM (inactive) | > 100 µM (inactive) | > 100 µM (inactive) | 52.7 µM (inactive) | 39 µM (inactive) | 77.8 µM (inactive) | 87.1 µM (inactive) | > 100 µM (inactive) | – | > 100 µM (inactive) | 40.6 µM (inactive) | 96.2 µM (inactive) | 24.8 µM (inactive) | > 100 µM (inactive) | > 100 µM (inactive) | 55.2 µM (inactive) | – | – | – |
| COC1C(O)CC(OC2CC(OC3CC(O[C@@H]4C(=O)c5c(cc6cc(OC7CC(OC8CC(O)C(O)C(C)O8)C(O)C(C)O7)c(C)c(O)c6c5O)C[C@H]4[C@H](OC)C(=O)[C@@H](O)[C@@H](C)O)OC(C)C3O)OC(C)C2O)OC1C (stereo not given in full) | 0.0272 µM (active) | 0.034 µM (active) | < 0.0197 µM (active) | < 0.0191 µM (active) | < 0.01 µM (active) | – | < 0.0228 µM (active) | < 0.0131 µM (active) | 0.0112 µM (active) | < 0.0119 µM (active) | < 0.0138 µM (active) | < 0.01 µM (active) | – | 0.0168 µM (active) | 0.0431 µM (active) | < 0.0126 µM (active) | < 0.0118 µM (active) | < 0.01 µM (active) | 0.0574 µM (active) | – |
| O=C1N(Cl)C(=O)C(c2ccc(Cl)cc2)(c2ccc(Cl)cc2)N1Cl | 39.9 µM (inactive) | > 100 µM (inactive) | 96.8 µM (inactive) | 55.8 µM (inactive) | 39.4 µM (inactive) | 26.1 µM (inactive) | > 100 µM (inactive) | – | > 100 µM (inactive) | > 100 µM (inactive) | > 100 µM (inactive) | 41.2 µM (inactive) | > 100 µM (inactive) | 48.8 µM (inactive) | > 100 µM (inactive) | > 100 µM (inactive) | 64.4 µM (inactive) | – | – | – |
| Cn1cc2ccccc2c1-c1nc(N)nc(F)n1 | 85.3 µM (inactive) | 64.4 µM (inactive) | > 100 µM (inactive) | > 100 µM (inactive) | > 100 µM (inactive) | > 100 µM (inactive) | 78.3 µM (inactive) | – | > 100 µM (inactive) | > 100 µM (inactive) | > 100 µM (inactive) | > 100 µM (inactive) | > 100 µM (inactive) | > 100 µM (inactive) | > 100 µM (inactive) | 56.1 µM (inactive) | > 100 µM (inactive) | – | – | – |
| CS(=O)(=O)OCCN(CCOS(C)(=O)=O)c1ccc(/C=N/N=c2/nc[nH]c3nc[nH]c23)cc1 | 10.9 µM (inactive) | 33.2 µM (inactive) | 35.2 µM (inactive) | 17.4 µM (inactive) | 4.57 µM (inactive) | 6.04 µM (inactive) | 16 µM (inactive) | 12.9 µM (inactive) | 16.3 µM (inactive) | 18.3 µM (inactive) | 15.9 µM (inactive) | 15.3 µM (inactive) | 19.1 µM (inactive) | 15.6 µM (inactive) | 26.9 µM (inactive) | 27 µM (inactive) | 12.3 µM (inactive) | – | – | – |
| CCOC(=O)C(NC(=O)c1ccc(/N=N/N(C)C)cc1)C(C)C (stereo not given) | > 100 µM (inactive) | > 100 µM (inactive) | > 100 µM (inactive) | > 100 µM (inactive) | > 100 µM (inactive) | > 100 µM (inactive) | > 100 µM (inactive) | > 100 µM (inactive) | 31 µM (inactive) | > 100 µM (inactive) | > 100 µM (inactive) | > 100 µM (inactive) | > 100 µM (inactive) | > 100 µM (inactive) | 54.2 µM (inactive) | > 100 µM (inactive) | > 100 µM (inactive) | – | – | – |
| O=C1c2cc(CCl)sc2C(=O)c2ccsc21 | 0.163 µM (active) | 1.24 µM (inactive) | 0.277 µM (active) | 0.327 µM (active) | 0.142 µM (active) | 0.0559 µM (active) | 0.195 µM (active) | 0.178 µM (active) | 0.333 µM (active) | 0.228 µM (active) | 0.0416 µM (active) | 0.184 µM (active) | 1.49 µM (inactive) | 1.62 µM (inactive) | 1.95 µM (inactive) | 0.0387 µM (active) | 0.422 µM (active) | – | 0.232 µM (active) | 0.0183 µM (active) |
| O=S1(=O)OCCOS(=O)(=O)C1(I)I | 18 µM (inactive) | 27.5 µM (inactive) | 17.5 µM (inactive) | – | 12.3 µM (inactive) | 21.1 µM (inactive) | 16.8 µM (inactive) | 14.7 µM (inactive) | – | 21.7 µM (inactive) | 15.5 µM (inactive) | 9.12 µM (inactive) | 25.3 µM (inactive) | 18.9 µM (inactive) | 27.3 µM (inactive) | 20.4 µM (inactive) | 18.7 µM (inactive) | – | – | – |
| CCOC(=O)c1cc(OC(=O)CC)c2c(OC)ccc(OC)c2c1 | 45 µM (inactive) | 35.8 µM (inactive) | 78.2 µM (inactive) | 35.2 µM (inactive) | 18.7 µM (inactive) | – | 66.5 µM (inactive) | 28.8 µM (inactive) | 53.6 µM (inactive) | 47.2 µM (inactive) | > 100 µM (inactive) | 30.5 µM (inactive) | > 100 µM (inactive) | 42.7 µM (inactive) | 47.1 µM (inactive) | > 100 µM (inactive) | > 100 µM (inactive) | – | – | – |
| CNC(=O)NCCCCC(NC(=O)OCc1ccccc1)C(=O)OCc1ccccc1 (stereo not given) | 23.6 µM (inactive) | 98.9 µM (inactive) | 24.2 µM (inactive) | 19.1 µM (inactive) | 27.4 µM (inactive) | 16.8 µM (inactive) | > 100 µM (inactive) | 21.5 µM (inactive) | 23.9 µM (inactive) | 19 µM (inactive) | 48.6 µM (inactive) | 24.2 µM (inactive) | 28.1 µM (inactive) | 29.9 µM (inactive) | 21.9 µM (inactive) | 14.4 µM (inactive) | 14.5 µM (inactive) | – | – | – |
| O=C(C#Cc1ccccc1)NC/C=C/c1ccccc1 | 46.6 µM (inactive) | > 100 µM (inactive) | 49.9 µM (inactive) | 42.6 µM (inactive) | 35.6 µM (inactive) | 24.1 µM (inactive) | 36.9 µM (inactive) | 33.6 µM (inactive) | 39 µM (inactive) | 33.3 µM (inactive) | 45.1 µM (inactive) | – | 55.8 µM (inactive) | 46.7 µM (inactive) | 47.3 µM (inactive) | 49.8 µM (inactive) | 29.7 µM (inactive) | – | – | – |
| C#CC1(O)CCC2[C@@H]3CCc4cc(Oc5nc(F)nc(-c6c7ccccc7cn6C)n5)ccc4C3CC[C@@]21C (stereo not given in full) | 35.8 µM (inactive) | > 100 µM (inactive) | > 100 µM (inactive) | > 100 µM (inactive) | > 46.3 µM (inactive) | > 70.5 µM (inactive) | 55.5 µM (inactive) | > 100 µM (inactive) | > 100 µM (inactive) | > 100 µM (inactive) | – | > 47.4 µM (inactive) | – | > 100 µM (inactive) | > 100 µM (inactive) | > 100 µM (inactive) | 89.3 µM (inactive) | – | – | – |
